Reference: ChEMBL document CHEMBL6109168, “Novel Compounds as 5-HT2A Receptor Modulators for Treating Psychiatric and Neurological Disorders” (ACS Med Chem Lett, 2025)
pEC50: −log10 of the molar value.

What follows are compounds tested against 5-hydroxytryptamine receptor 2A (Homo sapiens, UniProt P28223) (assay: Agonist activity at human 5HT2A receptor expressed in HEK293 cells assessed as IP1 accumulation by HTRF assay).
5-hydroxytryptamine receptor 2A, sequence (P28223 whole entry): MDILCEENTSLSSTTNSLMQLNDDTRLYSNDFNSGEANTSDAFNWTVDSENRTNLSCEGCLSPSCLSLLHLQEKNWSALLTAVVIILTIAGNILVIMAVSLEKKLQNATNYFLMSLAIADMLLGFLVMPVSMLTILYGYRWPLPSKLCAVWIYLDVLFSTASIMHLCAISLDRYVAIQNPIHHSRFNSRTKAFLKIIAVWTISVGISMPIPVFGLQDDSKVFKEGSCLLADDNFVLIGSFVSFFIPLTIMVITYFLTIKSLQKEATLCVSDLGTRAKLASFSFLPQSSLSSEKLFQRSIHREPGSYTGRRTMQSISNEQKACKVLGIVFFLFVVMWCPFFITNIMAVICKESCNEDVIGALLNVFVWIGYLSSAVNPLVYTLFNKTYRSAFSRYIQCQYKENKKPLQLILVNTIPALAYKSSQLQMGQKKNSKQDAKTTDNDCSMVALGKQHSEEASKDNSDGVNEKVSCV
Type: functional, cell-based
For `Fc1ccc2c(C3=CCCNC3)n[nH]c2c1F`, the pEC50 was > 7.00. For `N#Cc1cc(F)cc2c(C3=CCCNC3)c[nH]c12`, the pEC50 was > 7.00. With `COc1cc(Cl)c2[nH]cc(C3=CCCNC3)c2c1` the pEC50 was > 7.00. `Oc1cccc2[nH]cc(C3=CCCNC3)c12` was tested, and the pEC50 was > 7.00. With `C1=C(c2csc3ccccc23)CNCC1` the pEC50 was > 7.00. `N#Cc1c(F)ccc2c(C3=CCCNC3)c[nH]c12` was tested, and the pEC50 was > 7.00.
